# Molecular target: T1, Histone-lysine N-methyltransferase SETD7 (Homo sapiens, UniProt Q8WTS6)
# T1 sequence (Q8WTS6 whole entry): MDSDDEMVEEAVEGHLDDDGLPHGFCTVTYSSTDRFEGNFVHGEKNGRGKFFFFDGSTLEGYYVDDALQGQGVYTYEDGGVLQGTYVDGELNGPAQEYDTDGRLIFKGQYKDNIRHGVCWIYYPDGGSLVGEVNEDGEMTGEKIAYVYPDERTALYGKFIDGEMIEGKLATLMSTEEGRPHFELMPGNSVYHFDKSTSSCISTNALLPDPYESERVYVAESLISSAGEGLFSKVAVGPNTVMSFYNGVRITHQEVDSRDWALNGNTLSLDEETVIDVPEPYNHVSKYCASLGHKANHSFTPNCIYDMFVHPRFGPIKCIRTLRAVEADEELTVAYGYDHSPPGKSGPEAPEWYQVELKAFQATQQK
# Test: Inhibition of recombinant SET7/9 (unknown origin) using biotinylated histone H3-derived peptide/SAM as substrate after 60 mins by AlphaLISA assay
row,SMILES,IC50 [µM]
1,CN1CCN(C2c3ccccc3Oc3ccccc32)CC1,> 100
2,CN1CCC(OC2c3ccccc3C=Cc3ccccc32)CC1,> 100
3,CN1CCC(=C2c3ccccc3C=Cc3ccccc32)CC1 [CYPROHEPTADINE],3.4
4,CN1CCC(OC2c3ccccc3Sc3ccccc32)CC1,> 100
5,CN1CCC(=C2c3ccccc3Sc3ccccc32)CC1 [PIMETHIXENE],4.3
6,CN1CCN(C2c3ccccc3Sc3ccccc32)CC1,> 100
7,CN1CCN(C2c3ccccc3C=Cc3ccccc32)CC1,> 100
8,CN1CCC(OC2c3ccccc3Oc3ccccc32)CC1,> 100
